SMILES strings stand for the structures.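 Protocol summary: plate cells (96-well), add compound at 5 concentrations, incubate 48 h, interpolate endpoints linearly. The concentration for 50% growth inhibition is given as GI50.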 Activity calls are given as the source filed them. No stated cut-off is given here; in the data, active = GI50 up to about 1.1 µM and inactive = higher.

Some test systems named below: CAKI-1; DMS-114; HCT-116; HCT-15; HOP-62; HT-29; MOLT-4; NCI-H226; NCI-H23; NCI-H460; OVCAR-3; SF-268; SK-OV-3; SW-620; U-251; UACC-62; UO-31.
Common to all, as to assay: NCI-60 cell line screen, 48 h

For the compound `CCOc1ccc(NC(=O)CCc2nnc(SC)o2)cc1`, the GI50 in the test on CAKI-1 was > 100 µM (inactive); in the test with DMS-114 it was > 100 µM (inactive); in the test on HCT-116, > 100 µM (inactive); with HCT-15, over 100 µM; in the test with HOP-62, > 100 µM (inactive); with HT-29, > 100 µM (inactive). Also, the GI50 in the test on MOLT-4, in the test with NCI-H226, with NCI-H23, with NCI-H460, in the test with OVCAR-3 and in the test with SF-268 was > 100 µM (inactive) each time. Moreover, the GI50 with SK-OV-3, in the test on SW-620, with U-251, with UACC-62 and in the test with UO-31 was > 100 µM (inactive) each time.
Turning to `COc1ccc(/N=C/c2ccc(N(CCC#N)S(=O)(=O)c3ccccc3)cc2)cc1`, the GI50 in the test on CAKI-1 is > 100 µM (inactive); in the test on DMS-114 it was > 100 µM (inactive); with HCT-116 it was > 100 µM (inactive); in the test on HCT-15, over 100 µM; in the test on HOP-62, > 100 µM (inactive); with HT-29 it was > 100 µM (inactive). In addition, the GI50 with MOLT-4, in the test with NCI-H226, in the test on NCI-H23, in the test on NCI-H460, in the test with OVCAR-3 and in the test on SF-268 was > 100 µM (inactive) each time. The GI50 in the test on SK-OV-3, in the test on SW-620, with U-251, in the test on UACC-62 and in the test on UO-31 was > 100 µM (inactive) each time.
As for `O=C(Nc1c(O)[nH]c(=S)[nH]c1=O)c1ccccc1F`, the GI50 was > 100 µM (inactive) in the test on CAKI-1; > 100 µM (inactive) with DMS-114; > 100 µM (inactive) with HCT-116; over 100 µM with HCT-15; > 100 µM (inactive) with HOP-62; > 100 µM (inactive) with HT-29. Also, the GI50 in the test with MOLT-4, with NCI-H226, with NCI-H23, in the test on NCI-H460, with OVCAR-3 and in the test with SF-268 was > 100 µM (inactive) in each case. The GI50 in the test on SK-OV-3, in the test on SW-620, with U-251, in the test on UACC-62 and with UO-31 was > 100 µM (inactive) each time.
In the case of `CCCCCCCSCC1C(=O)C23C(O)C1CCC2C12COC3(O)C(O)C1C(C)(C)CCC2O` (stereo not given), the GI50 is 4.83 µM (inactive) in the test with CAKI-1; 8.38 µM (inactive) with DMS-114; 5.5 µM (inactive) with HCT-116; 9.02 µM in the test with HCT-15; 20.3 µM (inactive) with HOP-62; 13.5 µM (inactive) with HT-29. The GI50 with MOLT-4 was 3.3 µM (inactive); in the test with NCI-H226, 17.7 µM (inactive); with NCI-H23, 16.3 µM (inactive); with NCI-H460, 15.1 µM (inactive); in the test with OVCAR-3, 16.7 µM (inactive); in the test on SF-268 it was 10.8 µM (inactive). The GI50 was 18.1 µM (inactive) with SK-OV-3; 0.881 µM (active) in the test on SW-620; 10.7 µM (inactive) in the test on U-251; 11.5 µM (inactive) in the test on UACC-62; 11.2 µM (inactive) in the test with UO-31.
Turning to `CCSC1=CC(Cc2ccc(OC)cc2)N(C(=O)OC)C1` (stereo not given), the GI50 with CAKI-1 is 86.5 µM (inactive); in the test on DMS-114 it was 23.4 µM (inactive); in the test with HCT-116, 52.2 µM (inactive); in the test with HCT-15, 40.7 µM; in the test on HOP-62, > 100 µM (inactive); with HT-29 it was 94.2 µM (inactive). Further, the GI50 in the test with MOLT-4 was > 100 µM (inactive); in the test on NCI-H226, > 100 µM (inactive); in the test with NCI-H23, > 100 µM (inactive); with NCI-H460 it was > 100 µM (inactive); with OVCAR-3, 51.4 µM (inactive); with SF-268, > 100 µM (inactive). The GI50 in the test on SK-OV-3 is > 100 µM (inactive); in the test with SW-620, 25.2 µM (inactive); in the test with U-251 it was > 100 µM (inactive); with UACC-62, 65.8 µM (inactive); with UO-31, > 100 µM (inactive).
